{"source": "paper PMC6896740", "about": "“Safety, tolerability, pharmacokinetics, and pharmacodynamics of PF-06650833, a selective interleukin-1 receptor-associated kinase 4 (IRAK4) inhibitor, in single and multiple ascending dose randomized phase 1 studies in healthy subjects” (Arthritis Research & Therapy, 2019)", "assay": "clinical", "details": "human, in vivo; for AUC(0-t): AUClast; for Tmax: median (range); for Vd/F: Vz/F", "excerpt": "Study 1 (B7921001; NCT02224651) was a 96-day, phase 1, within-cohort, randomized, double-blind, sponsor-open, placebo-substitution, five-period crossover, SAD study in healthy adult subjects (Fig. 1a). Subjects were sequentially enrolled into four cohorts of ten subjects each. Within each cohort, the subjects were randomized into a maximum of five periods. Within each period, eight subjects and two subjects were randomized to receive PF-06650833 and placebo, respectively. In this placebo-substitution design, all subjects within a cohort received one or more doses of PF-06650833 and/or placebo. Single oral doses of PF-06650833 IR formulations from 1 to 6000 mg, and MR formulations from 30 to 300 mg, were administered in fasted (overnight fast of ≥ 10 h) and/or fed (high-fat breakfast meal) states. Doses were escalated sequentially by period within each cohort (see Fig. 1a for final dosing scheme), based upon the evaluation of ≥ 48 h of safety and tolerability for all subjects and ≥ 8 h of PK data for at least six subjects receiving PF-06650833 and one subject receiving placebo. Dose escalation was to cease when either the limits of safety and/or tolerability were reached, the projected exposure at the subsequent dose exceeded the toxicokinetic limit (TK) established based on the no observable adverse effect level (NOAEL) in relevant animal studies, or a plateau in exposure was reached.\nThe effects of food on the plasma PK profile of the IR and MR formulations were explored in cohorts 1 and 3, respectively, by administering 30 mg doses of PF-06650833 in a fasted state and after a high-fat meal. A 1000-mg dose of the IR formulation was also tested in cohort 3 in an attempt to identify a maximum tolerated dose (MTD). Since TK limits were not reached with the IR formulation at doses up to 1000 mg, the IR doses were escalated to 2000 and 6000 mg with a high-fat meal in cohort 4 (Fig. 1a).\nFor both studies, samples of blood (and urine in study 2) were taken for evaluation of PK/PD parameters (see Additional file 1: Supplemental Methods). PK samples were obtained at the nominal time relative to dosing (± 10%). Plasma and urine samples were analyzed using validated, sensitive, and specific liquid chromatography tandem mass spectrometric methods (at Pfizer Inc., Groton, CT, USA, for study 1 and at Worldwide Pharmacokinetics, Dynamics and Metabolism, Cambridge, MA, USA, for study 2). The lower limit of quantification for PF-06650833 in plasma was 0.0500 ng/mL. The lower limit of quantification for PF-06650833 in urine was 1.00 ng/mL. Serum samples were also analyzed for hsCRP, and plasma samples were analyzed for 4β-hydroxycholesterol and cholesterol.\nPK parameters were calculated using non-compartmental analysis of concentration-time data. For study 1 only, data from cohort 1 (period 4 [IR 30 mg] versus period 5 [IR 30 mg + food]) and cohort 3 (period 2 [MR 30 mg] versus period 3 [MR 30 mg + food]) were used to estimate the effect of food intake. Cmax and AUC were calculated for each subject and treatment, with and without food, after which a within-subject difference could be found between fed (high-fat meal) and fasted doses. Analysis of covariance was used to model these within-subject differences and to calculate 95% confidence intervals (CIs) for the differences for each dose (IR 30 mg and MR 30 mg). For study 2 only, the amounts of PF-06650833 in urine and renal clearance were listed and summarized descriptively. As part of the routine safety laboratory monitoring, the presence of any atypical crystals in urine specimens was semi-quantitatively assessed microscopically by typical histopathologic methods and scored as numbers of crystals per high power field (hpf); higher abundance (moderate or many) was defined as ≥ 15/hpf. No formal interim analyses were conducted.\n4 In both studies, subjects were assigned to dose groups according to a pre-defined\n5 randomization schedule. Each subject was given a unique Electronic Data Capture […]", "data": [{"smiles": "CC[C@@H]1[C@H](F)C(=O)N[C@@H]1COc1nccc2cc(C(N)=O)c(OC)cc12", "note": "[PF-06650833, 1-{[(2S,3S,4S)-3-Ethyl-4-fluoro-5-oxopyrrolidin-2-yl]methoxy}-7-methoxyisoquinoline-6-carboxamide]", "values": [{"measurement": "Mean terminal half-life t½", "result": "9.4 to 11.7", "unit": "h"}, {"measurement": "CL/F, geometric mean (%CV)", "setting": "1 mg", "result": "194.3 (37) L/h"}, {"measurement": "AUC(0-inf)", "setting": "1 mg, AUCinf, geometric mean (%CV)", "result": 5.14, "unit": "ng·h/mL"}, {"measurement": "AUC(0-t)", "setting": "1 mg, geometric mean (%CV)", "result": 4.92, "unit": "ng·h/mL"}, {"measurement": "Cmax", "setting": "1 mg, geometric mean (%CV)", "result": 1.75, "unit": "ng/mL"}, {"measurement": "MRT", "setting": "1 mg, mean ± SD", "result": "3.12 ± 0.525", "unit": "h"}, {"measurement": "Tmax", "setting": "1 mg", "result": 1, "unit": "h"}, {"measurement": "Vd/F", "setting": "1 mg, geometric mean (%CV)", "result": 517, "unit": "L"}, {"measurement": "half-life", "setting": "1 mg, t½, mean ± SD", "result": "1.86 ± 0.24", "unit": "h"}, {"measurement": "CL/F, geometric mean (%CV)", "setting": "3 mg", "result": "173.1 (49) L/h"}, {"measurement": "AUC(0-inf)", "setting": "3 mg, AUCinf, geometric mean (%CV)", "result": 17.3, "unit": "ng·h/mL"}, {"measurement": "AUC(0-t)", "setting": "3 mg, geometric mean (%CV)", "result": 17, "unit": "ng·h/mL"}, {"measurement": "Cmax", "setting": "3 mg, geometric mean (%CV)", "result": 5.54, "unit": "ng/mL"}, {"measurement": "MRT", "setting": "3 mg, mean ± SD", "result": "3.4 ± 0.622", "unit": "h"}, {"measurement": "Tmax", "setting": "3 mg", "result": 0.525, "unit": "h"}, {"measurement": "Vd/F", "setting": "3 mg, geometric mean (%CV)", "result": 567, "unit": "L"}, {"measurement": "half-life", "setting": "3 mg, t½, mean ± SD", "result": "2.34 ± 0.67", "unit": "h"}, {"measurement": "CL/F, geometric mean (%CV)", "setting": "10 mg", "result": "121.0 (48) L/h"}, {"measurement": "AUC(0-inf)", "setting": "10 mg, AUCinf, geometric mean (%CV)", "result": 82.7, "unit": "ng·h/mL"}, {"measurement": "AUC(0-t)", "setting": "10 mg, geometric mean (%CV)", "result": 81.9, "unit": "ng·h/mL"}, {"measurement": "Cmax", "setting": "10 mg, geometric mean (%CV)", "result": 22.6, "unit": "ng/mL"}, {"measurement": "MRT", "setting": "10 mg, mean ± SD", "result": "4.31 ± 0.787", "unit": "h"}, {"measurement": "Tmax", "setting": "10 mg", "result": 1, "unit": "h"}, {"measurement": "Vd/F", "setting": "10 mg, geometric mean (%CV)", "result": 618, "unit": "L"}, {"measurement": "half-life", "setting": "10 mg, t½, mean ± SD", "result": "3.54 ± 0.139", "unit": "h"}, {"measurement": "AUCinf (food-effect analysis)", "setting": "30 mg", "result": 211.3, "unit": "ng·h/mL"}, {"measurement": "AUCinf, geometric mean (%CV)", "setting": "30 mg", "result": "206.4 (29) ng•h/mL"}, {"measurement": "AUClast, geometric mean (%CV)", "setting": "30 mg", "result": "203.7 (29) ng•h/mL"}, {"measurement": "AUC(0-inf)", "setting": "30 mg, AUCinf (food-effect analysis)", "result": 261, "unit": "ng·h/mL"}, {"measurement": "AUC(0-inf)", "setting": "30 mg, AUCinf, geometric mean (%CV)", "result": 263, "unit": "ng·h/mL"}, {"measurement": "AUC(0-t)", "setting": "30 mg, geometric mean (%CV)", "result": 249, "unit": "ng·h/mL"}, {"measurement": "AUCinf, geometric mean (%CV)", "setting": "100 mg", "result": "646.4 (48) ng•h/mL"}, {"measurement": "AUClast, geometric mean (%CV)", "setting": "100 mg", "result": "549.4 (38) ng•h/mL"}, {"measurement": "MRT, mean ± SD", "setting": "100 mg", "result": "11.2 ± 4.81", "unit": "h"}, {"measurement": "t½, mean ± SD", "setting": "100 mg", "result": "15.0 ± 5.22", "unit": "h"}, {"measurement": "AUC(0-inf)", "setting": "100 mg, AUCinf, geometric mean (%CV)", "result": 839, "unit": "ng·h/mL"}, {"measurement": "AUC(0-t)", "setting": "100 mg, geometric mean (%CV)", "result": 762, "unit": "ng·h/mL"}, {"measurement": "MRT", "setting": "100 mg, mean ± SD", "result": "19.3 ± 5.73", "unit": "h"}, {"measurement": "half-life", "setting": "100 mg, t½, mean ± SD", "result": "9.35 ± 3.62", "unit": "h"}, {"measurement": "AUCinf, geometric mean (%CV)", "setting": "300 mg", "result": "1477 (71) ng•h/mL"}, {"measurement": "AUClast, geometric mean (%CV)", "setting": "300 mg", "result": "1436 (57) ng•h/mL"}, {"measurement": "Tmax, median (range)", "setting": "300 mg", "result": "2 (0.500–2.00) h"}, {"measurement": "Vz/F, geometric mean (%CV)", "setting": "300 mg", "result": "5310 (69) L"}, {"measurement": "t½, mean ± SD", "setting": "300 mg", "result": "19.9 ± 9.54", "unit": "h"}, {"measurement": "AUC(0-inf)", "setting": "300 mg, AUCinf, geometric mean (%CV)", "result": 2040, "unit": "ng·h/mL"}, {"measurement": "AUC(0-t)", "setting": "300 mg, geometric mean (%CV)", "result": 1970, "unit": "ng·h/mL"}, {"measurement": "Tmax", "setting": "300 mg", "result": 4, "unit": "h"}, {"measurement": "Vd/F", "setting": "300 mg, geometric mean (%CV)", "result": 6820, "unit": "L"}, {"measurement": "half-life", "setting": "300 mg, t½, mean ± SD", "result": "38.8 ± 21.1", "unit": "h"}, {"measurement": "CL/F, geometric mean (%CV)", "setting": "1000 mg", "result": "411.4 (40) L/h"}, {"measurement": "AUC(0-inf)", "setting": "1000 mg, AUCinf, geometric mean (%CV)", "result": 2430, "unit": "ng·h/mL"}, {"measurement": "AUC(0-t)", "setting": "1000 mg, geometric mean (%CV)", "result": 2270, "unit": "ng·h/mL"}, {"measurement": "Cmax", "setting": "1000 mg, geometric mean (%CV)", "result": 309, "unit": "ng/mL"}, {"measurement": "MRT", "setting": "1000 mg, mean ± SD", "result": "18.7 ± 4.37", "unit": "h"}, {"measurement": "Tmax", "setting": "1000 mg", "result": 0.75, "unit": "h"}, {"measurement": "Vd/F", "setting": "1000 mg, geometric mean (%CV)", "result": 14600, "unit": "L"}, {"measurement": "half-life", "setting": "1000 mg, t½, mean ± SD", "result": "44.9 ± 69.6", "unit": "h"}, {"measurement": "half-life", "setting": "Mean terminal half-life t½", "result": "10.2 to 15", "unit": "h"}]}]}
